Earlier results, collected in PMC7590008, “Slow Dissolution Kinetics of Model Peptide Fibrils” (International Journal of Molecular Sciences, 2020).
Where a name gives a salt, the structure may show the parent alone.

Settings: can be considered a strong acid
Source text: First of all, for c<cs , the pH ≈6.3 is essentially the same as that of pure water (with some dissolved CO 2 ). This means that the A 8 K is a neutral salt and not a net acid or base. This implies that we can write the compound as PH ^+ TFA ^− , where P stands for the A 8 K peptide. The dry compound is a TFA salt, but with only one TFA counterion, because the carboxyl group is neutralized by one of the two ammonium groups ...

O=C(O)C(F)(F)F [TFA, Trifluoroacetate]
pK a: ≈ 1
